Measured values published in patent US20170198006A1, “PRMT5 INHIBITORS AND USES THEREOF” (Epizyme, Inc., priority 2014, published 2017).

Tests used:
PRMT5/MEP50 = molecular target: T1, PRMT5/MEP50 (Homo sapiens, UniProt O14744); experiment: PRMT5 Biochemical Assay (PRMT5/MEP50 enzyme assay on histone H4 peptide substrate, 3H-SAM Flashplate); settings: PRMT5 biochemical assay; read-out: Biochemical IC50
T1 construct: Flag-PRMT5; made in house; host or cells: Spodoptera frugiperda (SF9), baculovirus
Outline: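 Sf9-expressed Flag-PRMT5/6His-MEP50 preincubated with compound 30 min at 25 °C, then methylation of biotinylated H4 1-15 peptide started with ³H-SAM in 20 mM Bicine pH 7.6, 1 mM TCEP, 0.005% BSG, 0.002% Tween20.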

[1] = tested on: symmetric di-methyl arginine in Z-138 cells; experiment: Z-138 Methylation Assay (In Cell Western for symmetric di-methyl arginine and DNA content); format: cell-based; settings: Homo sapiens, read-out: ICW EC50
Excerpt: Z-138 suspension cells were purchased from ATCC (American Type Culture Collection, Manassas, Va.). RPMI/Glutamax medium, penicillin-streptomycin, heat inactivated fetal bovine serum, and D-PBS were purchased from Life Technologies, Grand Island, N.Y., USA. Odyssey blocking buffer, 800CW goat anti-rabbit IgG (H+L) antibody, and Licor Odyssey infrared scanner were purchased from Licor Biosciences, Lincoln, Nebr., USA. Symmetric di-methyl arginine antibody was purchased from EMD Millipore, Billerica, Mass., USA. 16% Paraformaldehyde was purchased from Electron Microscopy Sciences, Hatfield, Pa., USA.
Z-138 suspension cells were maintained in growth medium (RPMI 1640 supplemented with 10% v/v heat inactivated fetal bovine serum and 100 units/mL penicillin-streptomycin) and cultured at 37° C. under 5% CO2.
Cell Treatment, in Cell Western (ICW) for Detection of Symmetric Di-Methyl Arginine and DNA Content.
Z-138 cells were seeded in assay medium at a concentration of 50,000 cells per mL to a 384-well cell culture plate with 50 μL per well. Compound (100 nL) from 384 well source plates was added directly to 384 well cell plate. Plates were incubated at 37° C., 5% CO2 for 96 hours. After four days of incubation, 40 μL of cells from incubated plates were added to poly-D-lysine coated 384 well culture plates (BD Biosciences 356697). Plates were incubated at room temperature for 30 minutes then incubated at 37° C., 5% CO2 for 5 hours. After the incubation, 40 μL per well of 8% paraformaldehyde in PBS (16% paraformaldahyde was diluted to 8% in PBS) was added to each plate and incubated for 30 minutes. Plates were transferred to a Biotek 405 plate washer and washed 5 times with 100 μL per well of wash buffer (1×PBS with 0.1% Triton X-100 (v/v)). Next 30 μL per well of Odyssey blocking buffer were added to each plate and incubated 1 hour at room temperature. Blocking buffer was removed and 20 μL per well of primary antibody was added (symmetric di-methyl arginine diluted 1:100 in Odyssey buffer with 0.1% Tween 20 (v/v)) and plates were incubated overnight (16 hours) at 4° C. Plates were washed 5 times with 100 μL per well of wash buffer. Next 20 μL per well of secondary antibody was added (1:200 800CW goat anti-rabbit IgG (H+L) antibody, 1:1000 DRAQ5 (Biostatus limited) in Odyssey buffer with 0.1% Tween 20 (v/v)) and incubated for 1 hour at room temperature. The plates were washed 5 times with 100 μL per well wash buffer then 1 time with 100 μL per well of water. Plates were allowed to dry at room temperature then imaged on the Licor Odyssey machine which measures integrated intensity at 700 nm and 800 nm wavelengths. Both 700 and 800 channels were scanned.
First, the ratio for each well was determined by:
Each plate included fourteen control wells of DMSO only treatment (minimum inhibition) as well as fourteen control wells for maximum inhibition treated with 3 μM of a reference compound (Background wells). The average of the ratio values for each control type was calculated and used to determine the percent inhibition for each test well in the plate. Reference compound was serially diluted three-fold in DMSO for a total of nine test concentrations, beginning at 3 μM. Percent inhibition was determined and IC50 curves were generated using triplicate wells per concentration of compound.

Z-138 cells = experiment: Z-138 Proliferation Assay (Cell Titer Glo, 5 days); format: cell-based; settings: Homo sapiens, 120 h
Excerpt: Z-138 Proliferation Assay
Z-138 suspension cells were purchased from ATCC (American Type Culture Collection, Manassas, Va.). RPMI/Glutamax medium, penicillin-streptomycin, heat inactivated fetal bovine serum were purchased from Life Technologies, Grand Island, N.Y., USA. V-bottom polypropylene 384-well plates were purchased from Greiner Bio-One, Monroe, N.C., USA. Cell culture 384-well white opaque plates were purchased from Perkin Elmer, Waltham, Mass., USA. Cell-Titer Glo® was purchased from Promega Corporation, Madison, Wis., USA. SpectraMax M5 plate reader was purchased from Molecular Devices LLC, Sunnyvale, Calif., USA.
Z-138 suspension cells were maintained in growth medium (RPMI 1640 supplemented with 10% v/v heat inactivated fetal bovine serum and cultured at 37° C. under 5% CO2. Under assay conditions, cells were incubated in assay medium (RPMI 1640 supplemented with 10% v/v heat inactivated fetal bovine serum and 100 units/mL penicillin-streptomycin) at 37° C. under 5% CO2.
For the assessment of the effect of compounds on the proliferation of the Z-138 cell line, exponentially growing cells were plated in 384-well white opaque plates at a density of 10,000 cells/ml in a final volume of 50 μl of assay medium. A compound source plate was prepared by performing triplicate nine-point 3-fold serial dilutions in DMSO, beginning at 10 mM (final top concentration of compound in the assay was 20 μM and the DMSO was 0.2%). A 100 nL aliquot from the compound stock plate was added to its respective well in the cell plate. […] After addition of compounds, assay plates were incubated for 5 days at 37° C., 5% CO2, relative humidity >90%.
Cell viability was measured by quantitation of ATP present in the cell cultures, adding 35 μl of Cell Titer Glo® reagent to the cell plates. Luminescence was read in the SpectraMax M5 microplate reader. The concentration of compound inhibiting cell viability by 50% was determined using a 4-parametric fit of the normalized dose response curves.

T1 sequence (O14744 with tags, fused parts or gaps): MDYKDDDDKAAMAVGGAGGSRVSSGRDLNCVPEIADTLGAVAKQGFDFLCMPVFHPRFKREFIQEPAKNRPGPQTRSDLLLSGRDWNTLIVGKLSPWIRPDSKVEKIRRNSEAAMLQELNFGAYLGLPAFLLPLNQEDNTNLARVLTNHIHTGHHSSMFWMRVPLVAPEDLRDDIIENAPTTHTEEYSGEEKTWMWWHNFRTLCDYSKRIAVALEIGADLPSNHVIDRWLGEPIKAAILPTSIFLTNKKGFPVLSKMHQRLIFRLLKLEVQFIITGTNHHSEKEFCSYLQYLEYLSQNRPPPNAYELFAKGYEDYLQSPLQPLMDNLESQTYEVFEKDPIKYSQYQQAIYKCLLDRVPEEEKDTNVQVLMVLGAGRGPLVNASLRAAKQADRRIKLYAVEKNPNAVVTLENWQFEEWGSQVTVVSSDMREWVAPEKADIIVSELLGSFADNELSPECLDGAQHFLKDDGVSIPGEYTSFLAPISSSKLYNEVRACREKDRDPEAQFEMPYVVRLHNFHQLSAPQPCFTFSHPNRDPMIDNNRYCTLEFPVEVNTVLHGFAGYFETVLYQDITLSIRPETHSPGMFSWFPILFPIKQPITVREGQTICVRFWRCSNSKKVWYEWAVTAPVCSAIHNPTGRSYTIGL
T1 sequence (Q9BQA1 with tags, fused parts or gaps partner limits assumed): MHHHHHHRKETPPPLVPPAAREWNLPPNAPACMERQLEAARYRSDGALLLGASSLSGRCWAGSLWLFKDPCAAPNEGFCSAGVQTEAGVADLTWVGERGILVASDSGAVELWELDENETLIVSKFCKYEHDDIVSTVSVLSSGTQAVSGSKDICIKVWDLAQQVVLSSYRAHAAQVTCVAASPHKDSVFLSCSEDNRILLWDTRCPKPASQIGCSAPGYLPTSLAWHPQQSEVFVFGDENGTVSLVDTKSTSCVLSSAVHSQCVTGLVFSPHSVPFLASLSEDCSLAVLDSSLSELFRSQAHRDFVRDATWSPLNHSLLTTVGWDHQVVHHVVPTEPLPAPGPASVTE

O=C(NCC(O)CN1CCc2ccccc2C1)c1ccc(OC2CCOC2)cc1 (stereo not shown) [1-10]
IC50 (PRMT5/MEP50): < 100 nM | EC50 [1]: < 100 nM | EC50 (Z-138 cells): 1000 to 10000 nM

CN1CCC(NC2=NN(C)CC(C(=O)NC[C@H](O)CN3CCc4ccccc4C3)C2)C1 (stereo partly shown) [1-12]
IC50 (PRMT5/MEP50): < 100 nM | EC50 [1]: 101 to 1000 nM | EC50 (Z-138 cells): > 5000 nM

CN(C)c1cccc2c(S(=O)(=O)NC3CC(=O)N(c4ccccc4)C3)cccc12 (stereo not shown) [Compound 1-4]
IC50 (PRMT5/MEP50): 101 to 1000 nM | EC50 [1]: 101 to 1000 nM | EC50 (Z-138 cells): 1000 to 10000 nM

CN(C)c1cccc2c(S(=O)(=O)NC3CCN(Cc4ccccc4)C3)cccc12 (stereo not shown) [Compound 1-5]
IC50 (PRMT5/MEP50): 101 to 1000 nM | EC50 [1]: 1000 to 10000 nM | EC50 (Z-138 cells): > 20000 nM

O=C(CC1NC(N2CCN(c3ccccc3)CC2)=NC1=O)Nc1ccc(Cl)cc1 (stereo not shown) [Compound 1-6]
IC50 (PRMT5/MEP50): 101 to 1000 nM | EC50 [1]: 101 to 1000 nM | EC50 (Z-138 cells): > 20000 nM

CC(=O)N1CCC(Nc2cc(C(=O)NC[C@H](O)CNCc3ccccc3)ccn2)CC1 [Compound 1-8, (R)-2-((1-acetylpiperidin-4-yl)amino)-N-(3-(benzylamino)-2-hydroxypropyl)isonicotinamide]
IC50 (PRMT5/MEP50): 101 to 1000 nM | EC50 (Z-138 cells): > 5000 nM

OC(COc1cccc(-c2ccc3ncsc3c2)c1)CN1CCc2ccccc2C1 (stereo not shown) [Compound 1-9]
IC50 (PRMT5/MEP50): 101 to 1000 nM | EC50 [1]: 1000 to 10000 nM | EC50 (Z-138 cells): 10000 to 50000 nM

O=C(NC[C@H](O)CN1Cc2ccccc2C1)c1ccnc(NC2CCNC2)c1 (stereo partly shown) [Compound 1-11]
IC50 (PRMT5/MEP50): 101 to 1000 nM | EC50 (Z-138 cells): > 20000 nM

Cc1cccc(Cn2ccnc2CN)c1 [Compound 1-13]
IC50 (PRMT5/MEP50): 1000 to 10000 nM | EC50 [1]: > 1000 nM | EC50 (Z-138 cells): > 5000 nM

Cc1ccc(C(=O)CC2NC(N3CCN(c4ccccc4)CC3)=NC2=O)cc1 (stereo not shown) [Compound 1-14]
IC50 (PRMT5/MEP50): 101 to 1000 nM | EC50 [1]: 1000 to 10000 nM | EC50 (Z-138 cells): > 20000 nM

O=C1CC(NS(=O)(=O)c2cccc3ccccc23)CN1c1ccccc1 (stereo not shown) [Compound 2-4]
IC50 (PRMT5/MEP50): 101 to 1000 nM | EC50 [1]: 101 to 1000 nM | EC50 (Z-138 cells): 10000 to 50000 nM

CN(C)c1cccc2c(S(=O)(=O)N[C@H]3CCN(Cc4ccccc4)C3)cccc12 [Compound 2-5, (S)—N-(1-benzylpyrrolidin-3-yl)-5-(dimethylamino)naphthalene-1-sulfonamide]
IC50 (PRMT5/MEP50): < 100 nM | EC50 [1]: 101 to 1000 nM | EC50 (Z-138 cells): > 20000 nM

CN(C)c1cccc2c(S(=O)(=O)NCCC(N)Cc3ccccc3)cccc12 (stereo not shown) [Compound 2-7, N-(3-amino-4-phenylbutyl)-5-(dimethylamino)naphthalene-1-sulfonamide]
IC50 (PRMT5/MEP50): < 100 nM | EC50 [1]: 101 to 1000 nM | EC50 (Z-138 cells): 1000 to 10000 nM

CC1CC(Nc2cccc(C(=O)NC[C@H](O)CN3CCc4ccccc4C3)c2)CC(C)O1 (stereo partly shown) [Compound 2-9]
IC50 (PRMT5/MEP50): < 100 nM | EC50 [1]: < 100 nM | EC50 (Z-138 cells): 101 to 1000 nM

CS(=O)(=O)N1CCC(Nc2cncc(C(=O)NC[C@H](O)CN3Cc4ccccc4C3)c2)CC1 [Compound 2-11]
IC50 (PRMT5/MEP50): < 100 nM | EC50 [1]: 101 to 1000 nM | EC50 (Z-138 cells): 10000 to 50000 nM

NCc1nccn1Cc1cccc(Cl)c1 [Compound 2-13]
IC50 (PRMT5/MEP50): 1000 to 10000 nM | EC50 [1]: > 1000 nM | EC50 (Z-138 cells): > 5000 nM

CN(C)c1cccc2c(S(=O)(=O)NCC3CCN(Cc4ccco4)CC3)cccc12 [Compound 3-3]
IC50 (PRMT5/MEP50): 101 to 1000 nM | EC50 [1]: 1000 to 10000 nM | EC50 (Z-138 cells): 10000 to 50000 nM

CCOc1c(C)cc(S(=O)(=O)NCC2CCN(Cc3ccccc3Br)CC2)cc1C [Compound 4-3]
IC50 (PRMT5/MEP50): 101 to 1000 nM | EC50 (Z-138 cells): > 20000 nM

CN(C)c1cccc2c(S(=O)(=O)NC[C@H](N)Cc3ccccc3)cccc12 [Compound 4-7]
IC50 (PRMT5/MEP50): 101 to 1000 nM | EC50 [1]: 101 to 1000 nM

CCOc1c(C)cc(S(=O)(=O)NCC2CCN(Cc3cccc4c3OCO4)CC2)cc1C [Compound 5-3]
IC50 (PRMT5/MEP50): 101 to 1000 nM | EC50 (Z-138 cells): > 20000 nM

CCOc1c(C)cc(S(=O)(=O)NCC2CCN(Cc3ccc4ncccc4c3)CC2)cc1C [Compound 6-3]
IC50 (PRMT5/MEP50): 101 to 1000 nM | EC50 (Z-138 cells): > 20000 nM

CN(C)c1cccc2c(S(=O)(=O)NC3CC(=O)N(c4cccc(F)c4)C3)cccc12 (stereo not shown) [Compound 6-4]
IC50 (PRMT5/MEP50): 101 to 1000 nM | EC50 [1]: 1000 to 10000 nM

CCOc1c(C)cc(S(=O)(=O)NCC2CCN(Cc3ccccc3-c3ccccc3)CC2)cc1C [Compound 7-3]
IC50 (PRMT5/MEP50): 101 to 1000 nM | EC50 (Z-138 cells): > 20000 nM

O=S(=O)(NCC1CCN(Cc2ccco2)CC1)c1ccc(Oc2ccccc2)cc1 [Compound 8-3]
IC50 (PRMT5/MEP50): 101 to 1000 nM | EC50 (Z-138 cells): > 20000 nM

CCOc1c(C)cc(S(=O)(=O)NCC2CCN(Cc3c(SC(C)C)nc4sccn34)CC2)cc1C [Compound 9-3]
IC50 (PRMT5/MEP50): < 100 nM | EC50 (Z-138 cells): > 20000 nM

CCOc1c(C)cc(S(=O)(=O)NCC2CCN(Cc3ccc4ccccc4c3)CC2)cc1C [Compound 10-3]
IC50 (PRMT5/MEP50): 101 to 1000 nM | EC50 (Z-138 cells): > 20000 nM

CCOc1c(C)cc(S(=O)(=O)NCC2CCN(Cc3c(-c4ccccc4)[nH]c4ccccc34)CC2)cc1C [Compound 11-3]
IC50 (PRMT5/MEP50): 101 to 1000 nM | EC50 (Z-138 cells): > 20000 nM

O=S(=O)(NCC1CCN(Cc2ccco2)CC1)c1cccc2c(Cl)cccc12 [Compound 12-3, 5-chloro-N-((1-(furan-2-ylmethyl)piperidin-4-yl)methyl)naphthalene-1-sulfonamide]
IC50 (PRMT5/MEP50): 101 to 1000 nM | EC50 [1]: 10000 to 50000 nM

CN(C)c1cccc2c(S(=O)(=O)NC3CCN(Cc4ccco4)CC3)cccc12 [Compound 13-3]
IC50 (PRMT5/MEP50): 101 to 1000 nM | EC50 (Z-138 cells): > 20000 nM
